According to PubChem BioAssay AID330 (DTP/NCI, 2004):
Several values for one entry are separate records, joined by “and”; a condition that tells them apart may be missing. Identical values can stand only once. Inconclusive results and toxic doses are left out. How the source made its calls: active means survival T/C of 150% or more; inactive means T/C below 125% in these data.

Test system: P388 leukemia ip, CD2F1 mice, survival T/C
Experiment: NCI In Vivo Anticancer Drug Screen. Data for tumor model P388 Leukemia (intraperitoneal) in CD2F1 (CDF1) mice
Settings: endpoint: median survival time, higher = longer survival
How it was run: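 Mice carrying the transplanted tumor received test compound or vehicle. Survival was recorded in each group, and the value is the treated-group measurement divided by that of the vehicle-treated control group.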

[1] = dose: 60.0 mg/kg/injection, schedule: Q01DX005 (ip), vehicle: saline with Tween-80
[2] = dose: 240.0 mg/kg/injection, schedule: Q01DX005 (ip), vehicle: saline with Tween-80
[3] = dose: 50.0 mg/kg/injection, schedule: Q01DX009 (ip), vehicle: Klucel (hydroxypropylcellulose) (HPC)
[4] = dose: 100.0 mg/kg/injection, schedule: Q01DX009 (ip), vehicle: Klucel (hydroxypropylcellulose) (HPC)
[5] = dose: 200.0 mg/kg/injection, schedule: Q01DX009 (ip), vehicle: Klucel (hydroxypropylcellulose) (HPC)
[6] = dose: 50.0 mg/kg/injection, schedule: Q01DX009 (ip), vehicle: saline
[7] = dose: 100.0 mg/kg/injection, schedule: Q01DX009 (ip), vehicle: saline
[8] = dose: 6.25 mg/kg/injection, schedule: Q01DX009 (ip), vehicle: saline
[9] = dose: 12.5 mg/kg/injection, schedule: Q01DX009 (ip), vehicle: saline
[10] = dose: 25.0 mg/kg/injection, schedule: Q01DX009 (ip), vehicle: saline
[11] = dose: 100.0 mg/kg/injection, schedule: Q04DX002 (ip), vehicle: saline with Tween-80

Measured: T/C

O=C(c1ccc(Cl)cc1)N1CCN(C(=O)N2CCN(C(=O)N3CCN(C(=O)c4ccc(Cl)cc4)CC3)CC2)CC1
inactive: dose: 3.75 mg/kg/injection, schedule: Q01DX005 (ip), vehicle: saline with Tween-80 99 % of control | dose: 7.5 mg/kg/injection, schedule: Q01DX005 (ip), vehicle: saline with Tween-80 99 % of control | dose: 15.0 mg/kg/injection, schedule: Q01DX005 (ip), vehicle: saline with Tween-80 100 % of control | dose: 30.0 mg/kg/injection, schedule: Q01DX005 (ip), vehicle: saline with Tween-80 89 % of control | [1] 92 % of control | [2] 89 % of control

FC(F)(F)C1OC2CCCN2C2=C1CCc1ccccc12 (stereo unspecified)
inactive: dose: 100.0 mg/kg/injection, schedule: Q04DX002 (ip), vehicle: saline 108 % of control | dose: 200.0 mg/kg/injection, schedule: Q04DX002 (ip), vehicle: saline 101 % of control | dose: 400.0 mg/kg/injection, schedule: Q04DX002 (ip), vehicle: saline 100 % of control

Cc1cccc(=O)[n-]1.Cc1cccc(=O)[n-]1.Cc1cccc(=O)[n-]1.Cc1cccc(=O)[n-]1.[Cr+2].[Cr+2]
inactive: dose: 100.0 mg/kg/injection, schedule: Q04DX002 (ip), vehicle: Klucel (hydroxypropylcellulose) (HPC) 90 % of control | dose: 200.0 mg/kg/injection, schedule: Q04DX002 (ip), vehicle: Klucel (hydroxypropylcellulose) (HPC) 110 % of control | dose: 400.0 mg/kg/injection, schedule: Q04DX002 (ip), vehicle: Klucel (hydroxypropylcellulose) (HPC) 120 % of control

C[Si](C)(C)N1C(=O)c2ccccc2C1=O
inactive: [3] 100 % of control | [4] 115 % of control | [5] 107 % of control

ClCC1OCCO1
inactive: [6] 116 % of control | [7] 116 % of control

CC1CCC2(C(=O)O)CCC3(C)C(=CCC4C5(C)CCC(OC(=O)/C=C/c6ccccc6)C(C)(C)C5CCC43C)C2C1C (stereo unspecified)
inactive: dose: 7.44 mg/kg/injection, schedule: Q01DX009 (ip), vehicle: Klucel (hydroxypropylcellulose) (HPC) 107 % of control | dose: 14.88 mg/kg/injection, schedule: Q01DX009 (ip), vehicle: Klucel (hydroxypropylcellulose) (HPC) 100 % of control | dose: 29.76 mg/kg/injection, schedule: Q01DX009 (ip), vehicle: Klucel (hydroxypropylcellulose) (HPC) 101 % of control

c1ccc(CSc2ncnc3n[nH]nc23)cc1
inactive: dose: 3.12 mg/kg/injection, schedule: Q01DX009 (ip), vehicle: saline 100 % of control | [8] 106 % of control | [9] 104 % of control | [10] 100 % of control

Nc1nc(=S)c2ncn(C3OC(CO)CC3O)c2[nH]1 (stereo unspecified)
inactive: dose: 26.4 mg/kg/injection, schedule: Q04DX003 (ip), vehicle: saline 122 % of control | dose: 150.0 mg/kg/injection, schedule: Q04DX003 (ip), vehicle: saline 116 % of control

CCC(C)C(C)CNC12CN3CN(CN(C3)C1)C2 (stereo unspecified)
inactive: dose: 50.0 mg/kg/injection, schedule: Q01DX001 (ip), vehicle: saline 103 % of control | dose: 100.0 mg/kg/injection, schedule: Q01DX001 (ip), vehicle: saline 104 % of control | dose: 200.0 mg/kg/injection, schedule: Q01DX001 (ip), vehicle: saline 108 % of control

C#CC[N+]12CN3CN(CN(C3)C1)C2
inactive: [9] 98 % of control | [10] 99 % of control | [6] 99 % of control | [7] 116 % of control

CC(C)(C)C(=O)C=C(C(F)(F)F)C(F)(F)F
inactive: [8] 91 % of control | [9] 86 % of control | [10] 113 % of control

O=C(O)C1C(CCl)=C1CCl
inactive: dose: 60.0 mg/kg/injection, schedule: Q01DX005 (ip), vehicle: Klucel (hydroxypropylcellulose) (HPC) 100 % of control | dose: 120.0 mg/kg/injection, schedule: Q01DX005 (ip), vehicle: Klucel (hydroxypropylcellulose) (HPC) 104 % of control

Nc1cc2nc(=O)cc3n2c(n1)SC3
inactive: dose: 50.0 mg/kg/injection, schedule: Q01DX005 (ip), vehicle: Klucel (hydroxypropylcellulose) (HPC) 99 % of control | dose: 100.0 mg/kg/injection, schedule: Q01DX005 (ip), vehicle: Klucel (hydroxypropylcellulose) (HPC) 100 % of control | dose: 200.0 mg/kg/injection, schedule: Q01DX005 (ip), vehicle: Klucel (hydroxypropylcellulose) (HPC) 100 % of control

OC(CC1CCCCN1)c1ccccc1 (stereo unspecified)
inactive: dose: 12.5 mg/kg/injection, schedule: Q01DX005 (ip), vehicle: saline 98 % of control | dose: 12.5 mg/kg/injection, schedule: Q01DX009 (ip), vehicle: saline with Tween-80 107 % of control | dose: 25.0 mg/kg/injection, schedule: Q01DX005 (ip), vehicle: saline 105 % of control | dose: 25.0 mg/kg/injection, schedule: Q01DX009 (ip), vehicle: saline with Tween-80 101 % of control | dose: 50.0 mg/kg/injection, schedule: Q01DX005 (ip), vehicle: saline 115 % of control | dose: 50.0 mg/kg/injection, schedule: Q01DX009 (ip), vehicle: saline with Tween-80 100 % of control and 102 % of control

COC(=O)/C(C#N)=C1\C(=O)OCC1(C)C
inactive: dose: 100.0 mg/kg/injection, schedule: Q04DX003 (ip), vehicle: saline 104 % of control | dose: 200.0 mg/kg/injection, schedule: Q04DX003 (ip), vehicle: saline 94 % of control | dose: 400.0 mg/kg/injection, schedule: Q04DX003 (ip), vehicle: saline 98 % of control

NC(=Nc1ccc(Cl)cc1)N/N=C/c1ccc2c(c1)Cc1ccccc1-2
inactive: dose: 25.0 mg/kg/injection, schedule: Q04DX002 (ip), vehicle: saline with Tween-80 106 % of control | dose: 50.0 mg/kg/injection, schedule: Q04DX002 (ip), vehicle: saline with Tween-80 106 % of control | [11] 107 % of control

O=C1c2ccccc2-c2n[nH]c3cccc1c23
inactive: [3] 101 % of control | [4] 102 % of control | [5] 96 % of control | dose: 400.0 mg/kg/injection, schedule: Q01DX009 (ip), vehicle: Klucel (hydroxypropylcellulose) (HPC) 95 % of control

CSC1=N[N+]2=C(C)c3ccccc3O[B-]2(c2ccccc2)S1 (stereo unspecified)
inactive: dose: 50.0 mg/kg/injection, schedule: Q01DX005 (ip), vehicle: saline with Tween-80 96 % of control | dose: 100.0 mg/kg/injection, schedule: Q01DX005 (ip), vehicle: saline with Tween-80 92 % of control | dose: 200.0 mg/kg/injection, schedule: Q01DX005 (ip), vehicle: saline with Tween-80 87 % of control

CCCCCCCCCCCC1NC(=S)NC(=O)C1C#N (stereo unspecified)
inactive: [3] 95 % of control | [4] 93 % of control | [5] 92 % of control

O=C(Cc1cc(-c2ccccc2)nc(=O)[nH]1)c1ccccc1
inactive: [11] 97 % of control | dose: 200.0 mg/kg/injection, schedule: Q04DX002 (ip), vehicle: saline with Tween-80 93 % of control

S=C1SC2=NCCN2C2=NCCN12
inactive: dose: 11.25 mg/kg/injection, schedule: Q01DX001 (ip), vehicle: Klucel (hydroxypropylcellulose) (HPC) 96 % of control | dose: 22.5 mg/kg/injection, schedule: Q01DX001 (ip), vehicle: Klucel (hydroxypropylcellulose) (HPC) 102 % of control | dose: 45.0 mg/kg/injection, schedule: Q01DX001 (ip), vehicle: Klucel (hydroxypropylcellulose) (HPC) 100 % of control

Cc1nnc(NC(=O)c2ccc(Cl)c(Cl)c2)s1
inactive: [3] 100 % of control | [4] 94 % of control | [5] 89 % of control

O=C(COc1ccc(Cl)cc1Cl)Nc1ccccc1F
inactive: dose: 100.0 mg/kg/injection, schedule: Q04DX003 (ip), vehicle: saline with Tween-80 100 % of control | dose: 200.0 mg/kg/injection, schedule: Q04DX003 (ip), vehicle: saline with Tween-80 100 % of control | dose: 400.0 mg/kg/injection, schedule: Q04DX003 (ip), vehicle: saline with Tween-80 100 % of control

C/C=C/CC(C)C(O)C1C(=O)NC(CC)C(=O)N(C)CC(=O)N(C)C(CC(C)C)C(=O)NC(C(C)C)C(=O)N(C)C(CC(C)C)C(=O)NC(C)C(=O)NC(C)C(=O)N(C)C(CC(C)C)C(=O)N(C)C(CC(C)C)C(=O)N(C)C(C(C)C)C(=O)N1C (stereo unspecified)
inactive: dose: 15.0 mg/kg/injection, schedule: Q01DX009 (ip), vehicle: Klucel (hydroxypropylcellulose) (HPC) 106 % of control | dose: 30.0 mg/kg/injection, schedule: Q01DX009 (ip), vehicle: Klucel (hydroxypropylcellulose) (HPC) 109 % of control | dose: 60.0 mg/kg/injection, schedule: Q01DX009 (ip), vehicle: Klucel (hydroxypropylcellulose) (HPC) 116 % of control | dose: 120.0 mg/kg/injection, schedule: Q01DX009 (ip), vehicle: Klucel (hydroxypropylcellulose) (HPC) 109 % of control

O=C1CCC(C2(O)c3ccccc3-c3ccccc32)C(=O)N1 (stereo unspecified)
inactive: [1] 95 % of control | dose: 120.0 mg/kg/injection, schedule: Q01DX005 (ip), vehicle: saline with Tween-80 96 % of control | [2] 95 % of control
